Test results from ChEMBL document CHEMBL1151272, “Anti-inflammatory acylphloroglucinol derivatives from Hops (Humulus lupulus)” (J Nat Prod, 2005).

Key:
[1] = biological target: T1, Prostaglandin G/H synthase 1 (Ovis aries, UniProt P05979); assay: Inhibition of sheep COX1 measured by oxygen consumption
T1 sequence (P05979 whole entry): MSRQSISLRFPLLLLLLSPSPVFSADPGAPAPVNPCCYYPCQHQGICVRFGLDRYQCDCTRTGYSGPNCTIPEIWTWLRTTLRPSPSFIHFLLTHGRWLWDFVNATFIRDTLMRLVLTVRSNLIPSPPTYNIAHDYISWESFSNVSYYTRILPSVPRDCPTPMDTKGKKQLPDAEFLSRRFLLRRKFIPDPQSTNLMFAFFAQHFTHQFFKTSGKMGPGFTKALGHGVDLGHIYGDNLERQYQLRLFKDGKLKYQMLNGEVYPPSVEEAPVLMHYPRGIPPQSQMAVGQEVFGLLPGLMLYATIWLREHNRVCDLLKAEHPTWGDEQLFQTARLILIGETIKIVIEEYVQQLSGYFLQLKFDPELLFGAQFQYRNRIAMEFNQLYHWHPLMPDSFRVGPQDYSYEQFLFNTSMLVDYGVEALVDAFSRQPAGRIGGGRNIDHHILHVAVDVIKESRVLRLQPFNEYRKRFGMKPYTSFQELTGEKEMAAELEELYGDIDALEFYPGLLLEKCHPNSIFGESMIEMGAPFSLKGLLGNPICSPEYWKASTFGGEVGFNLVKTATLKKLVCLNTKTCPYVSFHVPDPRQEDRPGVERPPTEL

[2] = biological target: T2, Prostaglandin G/H synthase 1 (Ovis aries) (UniProt P05979); assay: Inhibition of sheep COX1 measured by oxygen consumption at 100 uM
T2 sequence (whole entry): T1 sequence (P05979 whole entry)

| IC50 [1] [µM] | SMILES | further results |
| --- | --- | --- |
| 131 | CCC(C)C(=O)c1c(O)cc(O)cc1O[C@@H]1O[C@H](CO)[C@@H](O)[C@H](O)[C@H]1O (stereo partly specified) |  |
|  | CC(C)CC(=O)c1c(O)cc(O)cc1O[C@@H]1O[C@H](CO)[C@@H](O)[C@H](O)[C@H]1O | inhibition [2]: 12% |
| 3.8 | CC(C)C(=O)c1c(O)cc(O)cc1O [PHLOROISOBUTYROPHENONE] |  |
| 58.7 | CC(C)C(=O)c1c(O)cc(O[C@@H]2O[C@H](CO)[C@@H](O)[C@H](O)[C@H]2O)cc1O |  |
| 23.7 | CC(C)C(=O)c1c(O)cc(O)cc1O[C@@H]1O[C@H](CO)[C@@H](O)[C@H](O)[C@H]1O |  |
|  | Oc1cc(O)cc(O)c1 [PHLOROGLUCINOL] | AC50 [1]: Active |
